Bridge positions count the residues as written; N and C are the ends. Ends that are not written are not given here.
What was measured:
[1] = cited from earlier work
Description: (§1) Microcin J25 (MccJ25) is one of the most studied Gram-negative bacteriocins. This 21-amino-acid posttranslationally modified peptide produced by E. coli is a potent inhibitor of Enterobacteriaceae including Salmonella ([Rintoul et al., 2001]). It is a typical lasso peptide ([Arnison et al., 2013]; [Wang and Zhang, 2018]) which is characterized by an 8-residue macrolactam ring that is closed by an isopeptide bond between the N-terminus and the side chain carboxylate of a glutamate at position 8. The ring is threaded by the resulting tail that is locked inside by two bulky amino acid side chains ...

[2] = system: weaned pigs; conditions: MccJ25 purity above 99%; ref Yu et al., 2017; cited from earlier work
Description: as §1

[3] = system: E. coli infection; conditions: highly purified MccJ25; ref Yu et al., 2022; cited from earlier work
Description: (§2) The widespread use of antibiotics in livestock production has led to the emergence of antibiotic-multiresistant bacteria, which can infect humans via the food chain. The use of antibiotics as growth promoters has been banned outright in several industrialized countries, which has increased the urgency of the search for alternatives. Researchers began decades ago to propose bacteriocins as substitutes. In addition to their natural origin, being mostly indigenous to the gut microbiota, and their potent inhibitory activity, bacteriocins are most often endowed with a narrow spectrum of antibacteri ...

[4] = system: clinically relevant veterinary multidrug-resistant strains; conditions: highly purified MccJ25; ref Yu et al., 2022; cited from earlier work
Description: as §2

[5] = system: porcine intestinal microbiota; assay: 16S rRNA gene amplicon sequencing of microbiota in PolyFermS model (alpha/beta diversity, taxonomy); type: cell-based, swine; conditions: for change in microbial composition (PCoA of Bray Curtis similarity matrix, PERMANOVA) compared to Salmonella alone: 24 h fermentation, two replicates F1 and F2, 0.4 mM MccJ25, 4 mM reuterin, p value 0.001 for significant differences; for change in microbial composition (PCoA of Bray Curtis similarity matrix, PERMANOVA) compared to Salmonella alone / change in alpha diversity (Shannon index and number of observed ASVs): 0.6 mM rifampicin; for change in alpha diversity (Shannon index and number of observed ASVs): rifampicin effect from the 8-h time point until end of fermentation, 0.4 mM MccJ25, 4 mM reuterin
Method: (§3) The in vitro fermentation model of the swine colon has been described elsewhere in detail ([Tanner et al., 2014]) and in our previous study ([Naimi et al., 2020]). […] Seeded with 30% (v/v) swine fecal beads, the inoculum reactor IR (useful volume of 250 mL) was fed fresh nutrient medium continuously (Figure 1A). Effluent from IR was used to continuously inoculate at 10% (v/v) the test reactors TR1 and TR2, which also received 90% (v/v) fresh medium (Figure 1B). The feed rate of the three reactors controlled using peristaltic pumps (model 120U, Watson-Marlow, Falmouth, Cornwall, United Kingdom) was set at 27 mL/h for a mean retention time in IR and TRs of 9 h. For the first 3 days, the IR was run in repeated-batch mode, the medium replaced every 12 h with fresh medium, in order to colonize fecal bead. Continuous feeding was then started, followed by 12 days of stabilization before connection to TR1 and TR2. Continuous culture was split into three periods: stabilization, treatment and wash. Conditions were kept constant in IR to assess the temporal stability of the system without any manipulation during the entire fermentation, while TR1 and TR2 were subjected to treatments for various periods. Between each period, culture was flushed from TR1 and TR2 as described previously ([Tanner et al., 2014]). TR1 and TR2 were subjected to a washing procedure with 10% chlorine solution to decontaminate and remove any historical effect of the previous periods. Briefly, TR1 and TR2 were disconnected from the IR, the entire medium was removed and reactors were filled with 10% freshly prepared chlorine solution. After stirring for 1 h, the reactors were rinsed twice by adding sterile distilled water and stirring for another hour. After complete removal of water and chlorine residues, reactors were filled with sterile fresh nutritive medium and reconnected to the IR. After each flush, they were stabilized for 3 days until a steady state was reached before starting the next treatment period.
The microbial community at different time points along the fermentation was analyzed by Illumina next-generation 16S rRNA gene amplicon sequencing. Taxonomic analysis were assessed by sequencing the bacterial 16S rRNA gene in the V3-V4 region using the amplification primers 341F (5′-CCTACGGGNGGCWGCAG-3′) and 805R (5′-[…]-3′) adapted to incorporate the transposon-based Illumina Nextera adapters (Illumina, United States) and a sample barcode sequence allowing multiplexed sequencing ([García-López et al., 2020]). High-throughput sequencing was performed at the Institute for Integrative Systems Biology (Université Laval, Québec, Canada) on a MiSeq platform using 2 × 300 bp paired-end sequencing (Illumina, United States). The raw sequence data have been submitted to European Nucleotide Archive (ENA) database with accession number PRJEB52762.
Raw data were processed using the DADA2 R package (version 1.14.1) ([Callahan et al., 2016]) to obtain exact amplicon sequence variants (ASVs) using the metabaRpipe R package^1. Briefly, forward and reverse reads were truncated after 260 and 250 nucleotides, respectively. After truncation, reads with expected error rates higher than three and four for forward and reverse reads, respectively, were removed. After filtering, error rate learning, ASV inference and denoising, reads were merged with a minimum overlap of 15 nucleotides. Chimeric sequences were identified and removed. Taxonomy was assigned to ASVs using DADA2 against SILVA database (v138.1) ([Glöckner et al., 2017]). Phylogenetic relatedness of ASVs, alpha diversity (Observed and Shannon indexes) and beta diversity analyses (Bray Curtis similarity matrix) were performed using the phyloseq R package ([McMurdie and Holmes, 2013]) and the DivComAnalyses packages^2.
The rarefied ASV table was used to calculate richness and diversity indices.

[6] = system: Salmonella Newport; conditions: PolyFermS continuous culture simulating swine proximal colon; ref Naimi et al., 2020; cited from earlier work
Description: Microcin J25 (MccJ25) is one of the most studied Gram-negative bacteriocins. This 21-amino-acid posttranslationally modified peptide produced by E. coli is a potent inhibitor of Enterobacteriaceae including Salmonella ([Rintoul et al., 2001]). It is a typical lasso peptide ([Arnison et al., 2013]; [Wang and Zhang, 2018]) which is characterized by an 8-residue macrolactam ring that is closed by an isopeptide bond between the N-terminus and the side chain carboxylate of a glutamate at position 8. The ring is threaded by the resulting tail that is locked inside by two bulky amino acid side chains ... || Enumerating specific bacterial groups by PMA-qPCR provided first a global information on the composition of the swine gut microbial community. Rifampicin induced important changes in Bacteroides, Lactobacillaceae and total 16S rRNA gene contents at the end of the colonic fermentation while no major effects were observed when MccJ25 and reuterin were added separately. […] Taxonomically, rifampici ... || Since MccJ25 appears to be a potent inhibitor of Salmonella Newport in the PolyFermS continuous culture model of the porcine proximal colonic microbiome as shown previously ([Naimi et al., 2020]), it should be considered as a potential alternative to antibiotics in pork production. […] This is important since it has been shown that changes in gut microbiota composition are associated with various metabolic disorders and likely subject the ...

[7] = system: swine colonic microbiota metabolome; assay: LC-MS metabolomic profiling of swine colonic microbiota in PolyFermS model; type: cell-based; conditions: for impact on the metabolome of the swine colonic microbiota (LC-MS profiles, PCA): PolyFermS pellet extracts, 0.4 mM MccJ25, 4 mM reuterin, 0.6 mM rifampicin, MccJ25 effect decreased with time, rifampicin effect increased
Method: as §3
Resulting networks were visualized using Cytoscape 3.7.1.

[8] = system: swine colonic microbiota; assay: PMA-qPCR counts of bacterial groups in PolyFermS swine colon fermentation model; type: cell-based; conditions: for impact on total bacterial counts: PolyFermS, with Salmonella Newport 10^7 cfu/mL, 0.4 mM MccJ25 or 4 mM reuterin, 24 h
Method: as §3
The inhibitory activity of MccJ25, reuterin and rifampicin against Salmonella Newport and the major bacterial species constituting the swine colonic microbiota were quantified using propidium-monoazide-coupled quantitative polymerase chain reaction (PMA-qPCR). Samples collected from the reactors were treated with propidium monoazide (PMA dye, Biotium, Inc., Hayward, CA, United States) for viable bacteria counts as described previously ([Fernandez et al., 2016]). […]
The quantitative PCR (qPCR) was performed in MicroAmp® Fast Optical 96-Well Reaction Plates with Barcode (Life Technologies Inc., Burlington, ON, Canada) on an ABI 7500 Real-Time PCR System (Applied Biosystems, Streetsville, ON, Canada). Each sample was analyzed in duplicate. […]

[9] = system: E. coli; conditions: reuterin 1.3 mM, without affecting other bacterial populations; ref Cleusix et al., 2008; cited from earlier work
Method: Enumerating specific bacterial groups by PMA-qPCR provided first a global information on the composition of the swine gut microbial community. Rifampicin induced important changes in Bacteroides, Lactobacillaceae and total 16S rRNA gene contents at the end of the colonic fermentation while no major effects were observed when MccJ25 and reuterin were added separately. […] Taxonomically, rifampici ...

[10] = PolyFermS TR1/TR2, Salmonella Newport 10^7 cfu/mL + 0.6 mM rifampicin, after 12 h, followed by regrowth

| Compound | stability to denaturing conditions, high temperatures, extreme pHs and certain proteases [1] | effect of supplemented diet on weaned pigs [2] | effect on inflammation [3] | bactericidal activity in vitro [4] | change in microbial composition (PCoA of Bray Curtis similarity matrix, PERMANOVA) compared to Salmonella alone [5] | change in alpha diversity (Shannon index and number of observed ASVs) [5] | inhibitory activity against Salmonella Newport [6] | metabolomics profile after 24 h treatment ([7]; PolyFermS, 0.4 mM MccJ25 + Salmonella Newport, 24 h) | impact on total bacterial counts [8] | effect on E. coli population [9] | impact on the metabolome of the swine colonic microbiota (LC-MS profiles, PCA) [7] | relative abundance of Escherichia-Shigella (ASV002) ([5]; 0.6 mM rifampicin + Salmonella Newport, at 12 h, enriched from the 8-h time point) | taxonomic change at the phylum level ([5]; 0.6 mM rifampicin + Salmonella Newport, from the 6-h time point, both reactors F1 and F2) | change in amino acid levels in microbiota metabolome ([7]; PolyFermS, 0.6 mM rifampicin + Salmonella Newport, extracted ion chromatograms) | reduction of Bacteroides counts [8, 10] | reduction of total cell counts [8, 10] |
| --- | --- | --- | --- | --- | --- | --- | --- | --- | --- | --- | --- | --- | --- | --- | --- | --- |
| Microcin J25 (GGAGHVPEYFVGIGTPISFYG; lactam N-8; also: lasso macrolactam, places not given here; UniProt Q9X2V7 38-58, looked up) [MccJ25, 21-amino-acid posttranslationally modified lasso peptide bacteriocin produced by E. coli; 8-residue macrolactam ring closed by isopeptide bond to Glu8] | remarkable stability | improve growth performance, and attenuate diarrhea and systematic inflammation | decrease inflammation | efficient bactericidal activity | significant differences | did not induce a remarkable changes | remained potent over 24 h | close to that before treatment | did not induce significant impact |  |  |  |  |  |  |  |
| O=CCCO [reuterin, 3-hydroxypropanal] |  |  |  |  | No significant changes | did not induce a remarkable changes | did not inhibit Salmonella Newport |  | did not induce significant impact | significantly and selectively decrease E. coli | no impact |  |  |  |  |  |
| CO[C@H]1/C=C/O[C@@]2(C)Oc3c(C)c(O)c4c(O)c(c(/C=N/N5CCN(C)CC5)c(O)c4c3C2=O)NC(=O)/C(C)=C\C=C\[C@H](C)[C@H](O)[C@@H](C)[C@@H](O)[C@@H](C)[C@H](OC(C)=O)[C@@H]1C [rifampicin, Rifampicin] |  |  |  |  | significant differences | significant decrease | inhibits Salmonella growth |  |  |  | significant effects | more than 44% | increase of the relative abundance of Proteobacteria and Firmicutes phyla | increase in the levels of Leu/Ile, Phe, Tyr and Trp amino acids | approximately 1 log | approximately 1 log |
